Data on three compounds can be found in ChEMBL document CHEMBL4043251, “Synthesis of conjugates between oxazolidinone antibiotics and a pyochelin analogue” (Bioorg Med Chem Lett, 2017).

The subject of one data set is Pseudomonas aeruginosa. Nature of the data set: Antibacterial activity against Pseudomonas aeruginosa PAO1 by disc diffusion method. The data set is classed as functional.
A short description of data set [1]: Solubility of the compound in physiological medium. In kind it is physicochemical.
Data set [2] is described as follows: Solubility of the compound in aqueous medium. The data set is classed as physicochemical. As to conditions: buffer.

The source made the active and inactive calls. The rule behind the calls is not given here.

`CC(=O)NC[C@H]1CN(c2ccc(N3CCN(C(=O)CCC(=O)NCCCN4C([C@H]5CSC(c6ccccc6O)=N5)SC[C@H]4C(=O)O)CC3)c(F)c2)C(=O)O1` (stereo partly drawn): the result in the data set with Pseudomonas aeruginosa was inactive. Further, the solubility entry in data set [1] is recorded as “Insoluble”.

For `CC(=O)NC[C@H]1CN(c2ccc(N3CCN(C(=O)CNC(=O)OCCOCCOCC(=O)NCCCN4C([C@H]5CSC(c6ccccc6O)=N5)SC[C@H]4C(=O)O)CC3)c(F)c2)C(=O)O1` (stereo partly drawn), the outcome in the data set on Pseudomonas aeruginosa was inactive. Besides, the solubility result in data set [2] and in data set [1] was “Insoluble” in each case.

Consider `CC(=O)NC[C@H]1CN(c2ccc(N3CCN(C(=O)OCCOCCOCC(=O)NCCCN4C([C@H]5CSC(c6ccccc6O)=N5)SC[C@H]4C(=O)O)CC3)c(F)c2)C(=O)O1` (stereo partly drawn), for which the result with Pseudomonas aeruginosa was inactive. The solubility result in data set [2] and in data set [1] was “Insoluble” in each case.
